One data set deals with PDE4. The data set can be described thus: EC50 of the PDE4 results table (method not given).
The target of a further data set is PDE4 enzyme. Description: Inhibition of Phosphodiesterase Enzymes (PDE4), [3H]cAMP hydrolysis assay. The note with it: for IC50: PDE4 inhibition, 1 μM cAMP, 34° C., 20 minutes. The format is biochemical. As to the method: Inhibition of Phosphodiesterase Enzymes (PDE4)
In this assay, PDE4 enzyme converts [^3H] cAMP to the corresponding [^3H] 5′-AMP in proportion to the amount of PDE4 present. The [^3H] 5′-AMP then was quantitatively converted to free [^3H] adenosine and phosphate by the action of snake venom 5′-nucleotidase.
The assay was performed with modification of the method of Thompson and Appleman (Biochemistry; 1971; 10; 311-316) and Schwartz and Passoneau (Proc. Natl. Acad. Sci. U.S.A. 1974; 71; 3844-3848), both references incorporated herein by reference in their entirety, at 34° C. In a 200 ul total reaction mixture, the reaction mixture contained 12.5 mM of Tris, 5 mM MgCl2, 1 μM cAMP (cold) and ^3H cAMP (0.1 uCi), (Amersham). […] Drug samples were then added in the reaction mixture (25 μt/tube). The assay was initiated by addition of enzyme mix (75 μl) and the mixture was incubated for 20 minutes at 34° C. The reaction was stopped by boiling the tubes for 2 mins at 100° C. in a water bath. After cooling on ice for 5 minutes and addition of 50 ug/reaction of 5′-nucleotidase snake venom from Crotalus atrox incubation was carried out again for 20 min. at 34° C. The unreacted substrate was separated from (^3H) Adenosine by addition of Dowex AG 1-X8 (Biorad Lab), (400 ul) which was prequilibrated (1:1:1) in water and ethanol. Reaction mixture was then thoroughly mixed, placed on ice for 15 minutes, vortexed and centrifuged at 14,000 r.p.m. for 2 mins. After centrifugation, a sample of the supernatant was taken and added in 24 well optiplates containing Scintillant (1 ml) and mixed well. The samples in the plates were then determined for radioactivity in a Top Counter and the PDE4 activity was estimated. PDE4 enzyme was present in quantities that yield <30% total hydrolysis of substrate (linear assay conditions).
Results were expressed as percent inhibition (IC50) in nM concentrations. The IC50 values were determined from the concentration curves by nonlinear regression analysis.

Consider 23 compounds from patent publication US7393846B2, “Heterocyclic compounds useful for the treatment of inflammatory and allergic disorders” (Glenmark Pharmaceuticals, S.A., priority 2003, dated 2008).

Structures can show the parent of a compound that is named as a salt. Where two headings read alike, the source gives them in different places.

As usually defined, the EC50 is the midpoint of the concentration-response curve. The IC50 is the concentration at which inhibition is half-maximal. Broadly, the melting point is the temperature, or range, at which the solid turns liquid. The compound `COc1ccc(C(=O)Nc2c(Cl)cncc2Cl)c2c1oc1ccc(NC(C)=O)cc12` [Example 04, N-(3,5-dichloropyrid-4-yl)-4-methoxy-8-acetamido-dibenzo[b,d]furan-1-carboxamide] gave a melting point of 252 °C. This compound yielded an EC50 in the data set with PDE4 of 13.6 nM. Also, the IC50 against PDE4 enzyme was 1.18 nM.
In the case of `COc1ccc(C(=O)Nc2c(Cl)cncc2Cl)c2c1oc1ccc(NC(=O)C(F)(F)F)cc12` [Example 14, N-(3,5-dichloropyrid-4-yl)-4-methoxy-8-trifluoroacetamido-dibenzo[b,d]furan-1-carboxamide], the melting point is greater than 300 °C. This compound displayed an EC50 with PDE4 of 14.1 nM. Further, at PDE4 enzyme, the IC50 turned out to be 7.01 nM.
Turning to `CCOC(=O)Nc1ccc2oc3c(OC)ccc(C(=O)Nc4c(Cl)cncc4Cl)c3c2c1` [Example 15, N-(3,5-dichloropyrid-4-yl)-4-methoxy-8-ethoxycarboxamido-dibenzo[b,d]furan-1-carboxamide], the melting point came out at 274 °C. Besides, the midpoint of inhibition at PDE4 enzyme, the IC50, lay at 15.1 nM.
As to `COc1ccc(C(=O)Nc2c(Cl)cncc2Cl)c2c1oc1ccc(NC(=O)OCC3CC3)cc12` [Example 18, N-(3,5-dichloropyrid-4-yl)-4-methoxy-8-cyclopropylmethoxycarboxamido-dibenzo[b,d]furan-1-carboxamide], the melting point is 272 °C. This compound also had an EC50 in the data set on PDE4 of 19.1 nM. The IC50 against PDE4 enzyme worked out at 3.47 nM.
For `CCN(CC)C(=O)Nc1ccc2oc3c(OC)ccc(C(=O)Nc4c(Cl)cncc4Cl)c3c2c1` [Example 20, N-(3,5-dichloropyrid-4-yl)-4-methoxy-8-N,N-diethylaminocarboxamido-dibenzo[b,d]furan-1-carboxamide] the same measures were greater than 250 °C, 8.29 nM and 10.3 nM.
With `CC(=O)Nc1ccc2oc3c(OC(F)F)ccc(C(=O)Nc4c(Cl)cncc4Cl)c3c2c1` [Example 34, N-(3,5-dichloropyrid-4-yl)-4-difluoromethoxy-8-acetamido-dibenzo[b,d]furan-1-carboxamide], the melting point turned out to be 234 °C. In the data set on PDE4, this compound yielded an EC50 of 14.8 nM. Besides, the IC50 against PDE4 enzyme amounted to 3.55 nM.
For the compound `O=C(Nc1c(Cl)cncc1Cl)c1ccc(OC(F)F)c2oc3ccc(NC(=O)C4CC4)cc3c12` [Example 36, N-(3,5-dichloropyrid-4-yl)-4-difluoromethoxy-8-cyclopropylcarboxamido-dibenzo[b,d]furan-1-carboxamide], the response in the data set on PDE4 was half-maximal at 8.44 nM (EC50). This compound had an IC50 at PDE4 enzyme of 4.64 nM.
In the data set on PDE4, `CCOC(=O)C(=O)Nc1ccc2oc3c(OC(F)F)ccc(C(=O)Nc4c(Cl)cncc4Cl)c3c2c1` [Example 37, N-(3,5-dichloropyrid-4-yl)-4-difluoromethoxy-8-ethoxycarbonylcarboxamido-dibenzo[b,d]furan-1-carboxamide] gave an EC50 greater than 278 nM. This compound had an IC50 at PDE4 enzyme of 21.5 nM.
The compound `O=C(O)C(=O)Nc1ccc2oc3c(OC(F)F)ccc(C(=O)Nc4c(Cl)cncc4Cl)c3c2c1` [Example 38, N-(3,5-dichloropyrid-4-yl)-4-difluoromethoxy-8-hydroxycarbonylcarboxamido-dibenzo[b,d]furan-1-carboxamide] had an EC50 in the data set on PDE4 of 26.9 nM. It took 1.41 nM to reach half-maximal inhibition against PDE4 enzyme (IC50).
As to `O=C(O)C(=O)Nc1ccc2oc3c(OC(F)F)ccc(C(=O)Nc4c(Cl)cncc4Cl)c3c2c1` [Example 39, N-(3,5-dichloropyrid-4-yl)-4-difluoromethoxy-8-hydroxycarbonylcarboxamido-dibenzo[b,d]furan-1-carboxamide disodium salt], in the data set on PDE4 (disodium salt), the EC50 is 9.19 nM. The IC50 at PDE4 enzyme (disodium salt) was found to be 0.598 nM.
In turn, `O=C(Nc1ccc2oc3c(OC(F)F)ccc(C(=O)Nc4c(Cl)cncc4Cl)c3c2c1)c1ccco1` [Example 40, N-(3,5-dichloropyrid-4-yl)-4-difluoromethoxy-8-fur-2-ylcarboxamido-dibenzo[b,d]furan-1-carboxamide] had an EC50 in the data set with PDE4 of 11.3 nM. The IC50 against PDE4 enzyme stood at 22 nM.
Consider `COc1ccc(C(=O)Nc2ccccc2)c2c1oc1ccc(NC(C)=O)cc12` [Example 41, N1-phenyl-4-methoxy-8-acetamido-dibenzo[b,d]furan-1-carboxamide], for which the melting point was 252 °C. Besides, at PDE4 enzyme, half-maximal inhibition (IC50) required 156 nM.
In turn, `COc1ccc(NC(=O)c2ccc(OC)c3oc4ccc(NC(C)=O)cc4c23)cc1` [Example 42, N1-(4-methoxyphenyl)-4-methoxy-8-acetamido-dibenzo[b,d]furan-1-carboxamide] showed a melting point of 285 °C. Further, on PDE4 enzyme, the half-maximal inhibitory concentration (IC50) turned out to be 959 nM.
The compound `COc1ccc(C(=O)NCc2ccccc2)c2c1oc1ccc(NC(C)=O)cc12` [Example 43, N1-benzyl-4-methoxy-8-acetamido-dibenzo[b,d]furan-1-carboxamide] had a melting point of 264 to 265 °C. The “percent inhibition” value with PDE4 enzyme (PDE4 inhibition at 1 uM) turned out to be 17.93% at 1 uM.
In turn, `CCNC(=S)Nc1ccc2oc3c(OC)ccc(C(=O)Nc4c(Cl)cncc4Cl)c3c2c1` [Example 44, N-(3,5-dichloropyrid-4-yl)-4-methoxy-8-(ethylaminothiocarboxamido)-dibenzo[b,d]furan-1-carboxamide] came in with a melting point of 260 °C. In addition, a half-maximal response in the data set with PDE4 (EC50) required 3.93 nM. On PDE4 enzyme, this compound displayed an IC50 of 1.72 nM.
Regarding `CCCCNC(=S)Nc1ccc2oc3c(OC)ccc(C(=O)Nc4c(Cl)cncc4Cl)c3c2c1` [Example 45, N-(3,5-dichloropyrid-4-yl)-4-methoxy-8-(n-butylaminothiocarboxamido)-dibenzo[b,d]furan-1-carboxamide], in the data set with PDE4, the EC50 was 6.37 nM. Further, the IC50 against PDE4 enzyme came out at 0.773 nM.
Compound `COc1ccc(C(=O)Nc2cccnc2)c2c1oc1ccc(NC(C)=O)cc12` [Example 46, N1-(pyrid-3-yl)-4-methoxy-8-acetamido-dibenzo[b,d]furan-1-carboxamide] displayed a melting point greater than 250 °C. For the same compound, on PDE4 enzyme, the midpoint of inhibition, the IC50, lay at 134 nM.
Compound `COc1ccc(C(=O)Nc2c(Cl)c[n+]([O-])cc2Cl)c2c1oc1ccc(NS(C)(=O)=O)cc12` [Example 48, N-(3,5-dichloropyrid-4-yl)-4-methoxy-8-methanesulfonamido-dibenzo[b,d]furan-1-carboxamide-N-oxide] yielded an EC50 with PDE4 of 11.9 nM. The compound also registered an IC50 on PDE4 enzyme of 1.67 nM.
With `COc1ccc(C(=O)Nc2ccncc2)c2c1oc1ccc(NC(C)=O)cc12` [Example 49, N-(pyrid-4-yl)-4-methoxy-8-acetamido-dibenzo[b,d]furan-1-carboxamide], the melting point was 267 to 268 °C. In addition, the IC50 on PDE4 enzyme stood at 13.2 nM.
Take `CCOC(=O)CNC(=O)Nc1ccc2oc3c(OC)ccc(C(=O)Nc4c(Cl)cncc4Cl)c3c2c1` [Example 50, N-(3,5-dichloropyrid-4-yl)-4-methoxy-8-(2-ethoxy-2-oxo-ethylaminocarbonylamino)-dibenzo[b,d]furan-1-carboxamide]: the melting point is greater than 250 °C. The compound also returned an EC50 in the data set on PDE4 of 147 nM. The same compound displayed an IC50 on PDE4 enzyme of 9.93 nM.
Regarding `COc1ccc(C(=O)Nc2c(Cl)cncc2Cl)c2c1oc1ccc(NC(=O)NCC(=O)O)cc12` [Example 51, N-(3,5-dichloropyrid-4-yl)-4-methoxy-8-(2-hydroxy-2-oxo-ethylaminocarbonylamino)-dibenzo[b,d]furan-1-carboxamide], a half-maximal effect with PDE4 (EC50) was put at 122 nM. This compound displayed an IC50 at PDE4 enzyme of 1.98 nM.
`CCOC(=O)CNc1ccc2oc3c(OC)ccc(C(=O)Nc4c(Cl)cncc4Cl)c3c2c1` [Example 52, N-(3,5-dichloropyrid-4-yl)-4-methoxy-8-(2-ethoxy-2-oxo-ethylamino)-dibenzo[b,d]furan-1-carboxamide] came in with an EC50 in the data set on PDE4 of 821 nM. Besides, the IC50 against PDE4 enzyme came to 8.13 nM.
In the data set on PDE4, `COc1ccc(C(=O)Nc2c(Cl)cncc2Cl)c2c1oc1ccc(NCC(=O)O)cc12` [Example 53, N-(3,5-dichloropyrid-4-yl)-4-methoxy-8-(2-hydroxy-2-oxo-ethylamino)-dibenzo[b,d]furan-1-carboxamide] displayed an EC50 of 71.5 nM. Half-maximal inhibition at PDE4 enzyme (IC50) was put at 1.05 nM.
